Experimental data: patent US4073902A, “O-Substituted 7β-amino-3-cephem-3-ol-4-carboxylic acid compounds” (priority 1972, dated 1978)

Experiments:
E. coli 5 = assay: oral ED50, systemic infection in mice; conditions: Escherichia coli, 5, in Mus musculus, read-out: oral ED50
From the text: (§4) **two doses; the first administered immediately after infection, the

[1] = system: Staphylococcus aureus 10B; assay: oral ED50, systemic infection in mice; conditions: in Mus musculus, read-out: oral ED50
From the text: (§5) *single dose of antibiotic administered immediately after infection

Shigella flexneri 11836 = assay: oral ED50, systemic infection in mice; assay type: in vivo, Shigella flexneri; female MF 2 mice; conditions: p.o., 2 doses
E. coli 16 = assay: oral ED50, systemic infection in mice; conditions: Escherichia coli, 16, in Mus musculus, read-out: oral ED50
From the text: as §4

Serratia marcescens 344 = assay: oral ED50, systemic infection in mice; conditions: Serratia marcescens, 344, in Mus musculus, read-out: oral ED50
Escherichia coli 205 = assay: oral ED50, systemic infection in mice; conditions: Escherichia coli, 205, in Mus musculus, read-out: oral ED50
E. coli 2 = assay: oral ED50, systemic infection in mice; conditions: Escherichia coli, 2, in Mus musculus, read-out: oral ED50
From the text: as §4

E. coli 2018 R^+TEM = assay: oral ED50, systemic infection in mice; conditions: Escherichia coli, in Mus musculus, read-out: oral ED50
From the text: as §4

E. coli 1239/19 = assay: oral ED50, systemic infection in mice; conditions: Escherichia coli, 1239/19, in Mus musculus, read-out: oral ED50
From the text: as §4

E. coli 9 = assay: oral ED50, systemic infection in mice; conditions: Escherichia coli, 9, in Mus musculus, read-out: oral ED50
From the text: as §4

S. aureus 2999 i^+ p^+ = assay: oral ED50, systemic infection in mice; conditions: Staphylococcus aureus, in Mus musculus, read-out: oral ED50
From the text: as §5

[2] = system: Salmonella typhimurium 273; assay: oral ED50, systemic infection in mice; conditions: Salmonella enterica, in Mus musculus, read-out: oral ED50
From the text: as §4

[3] = system: Enterobacter cloacae P 99; assay: oral ED50, systemic infection in mice; conditions: P99, in Mus musculus, read-out: oral ED50
proteus morganii 2359 = assay: oral ED50, systemic infection in mice; conditions: Morganella morganii, 2359, in Mus musculus, read-out: oral ED50
E. coli 205 R^+TEM = assay: oral ED50, systemic infection in mice; conditions: Escherichia coli, in Mus musculus, read-out: oral ED50
From the text: as §4

[4] = system: Klebsiella pneumoniae 327; assay: oral ED50, systemic infection in mice; conditions: Klebsiella pneumoniae, 327, in Mus musculus, read-out: oral ED50
[5] = system: Pseudomonas aeruginosa 799; assay: oral ED50, systemic infection in mice; conditions: Pseudomonas aeruginosa, 799, in Mus musculus, read-out: oral ED50
[6] = system: Streptococcus pyogenes 38; assay: oral ED50, systemic infection in mice; conditions: Streptococcus pyogenes, 38, in Mus musculus, 3 h, read-out: oral ED50
P. mirabilis 774 = assay: oral ED50, systemic infection in mice; conditions: Proteus mirabilis, 774, in Mus musculus, read-out: oral ED50
P. vulgaris 1076 = assay: oral ED50, systemic infection in mice; conditions: Proteus vulgaris, 1076, in Mus musculus, read-out: oral ED50
K. pneumoniae 329 = assay: oral ED50, systemic infection in mice; conditions: Klebsiella pneumoniae, 329, in Mus musculus, read-out: oral ED50
E. coli 9-25.1. = assay: oral ED50, systemic infection in mice; conditions: Escherichia coli, 925.1., in Mus musculus, read-out: oral ED50
From the text: as §4

S. typhimurium 277 = assay: oral ED50, systemic infection in mice; conditions: Salmonella enterica, in Mus musculus, read-out: oral ED50
P. rettgeri 856 = assay: oral ED50, systemic infection in mice; conditions: Providencia rettgeri, 856, in Mus musculus, read-out: oral ED50
[7] = system: Diplococcus pneumoniae 111/84; assay: oral ED50, systemic infection in mice; conditions: Streptococcus pneumoniae, 111/84, in Mus musculus, read-out: oral ED50
S. pyogenes Aronson = assay: oral ED50, systemic infection in mice; conditions: Streptococcus pyogenes, in Mus musculus, read-out: oral ED50
[8] = system: S. aureus 102 (methicillin res.); assay: oral ED50, systemic infection in mice; conditions: Staphylococcus aureus, in Mus musculus, read-out: oral ED50
From the text: as §5

E. coli 2018 = assay: oral ED50, systemic infection in mice; conditions: Escherichia coli, 2018, in Mus musculus, read-out: oral ED50
From the text: as §4

Pasteurella multocid 341 = assay: oral ED50, systemic infection in mice; conditions: Pasteurella, 341, in Mus musculus, read-out: oral ED50
in vivo = conditions: mouse, in vivo
From the text: (§1) ^a calcultated according to Miller-Tainter ± standard error (Proc.
(§2) ^b calculated according to the Probit-method with 95% confidence
(§3) limits (Goulden A., Methods of Statistical Analysis, J. Wiley and Sons, […]

solubility in urin = assay type: physicochemical; conditions: in words, compared with compound II
bactericidal activity = conditions: in words, compared with cephradin (III) and cephalexin (IV)
mice = assay: in vivo; conditions: mice; in words, compared with II and IV
From the text: as §1, §2, §3

[9] = system: systemic infections due to various bacterial strains; conditions: female MF 2 mice; in words, compared with II, III, IV

CC1=C(C(=O)O)N2C(=O)[C@@H](NC(=O)[C@H](N)C3=CCC=CC3)[C@H]2SC1 [cephradine]
ED50 (E. coli 5): > 30 mg/kg
ED50 [1]: 6 mg/kg
ED50 (Shigella flexneri 11836): 11 mg/kg
ED50 (E. coli 16): > 300 mg/kg
ED50 (Serratia marcescens 344): > 1000 mg/kg
ED50 (Escherichia coli 205): 52 mg/kg
ED50 (E. coli 2): > 300 mg/kg
ED50 (E. coli 2018 R^+TEM): 38 mg/kg
ED50 (E. coli 1239/19): ~25 mg/kg
ED50 (E. coli 9): ≥ 300 mg/kg
ED50 (S. aureus 2999 i^+ p^+): 32 mg/kg
ED50 [2]: 80 mg/kg
ED50 [3]: > 1000 mg/kg
ED50 (proteus morganii 2359): > 1000 mg/kg
ED50 (E. coli 205 R^+TEM): 16 mg/kg
ED50 [4]: 250 mg/kg
ED50 [5]: > 300 mg/kg
ED50 [6]: 8 mg/kg
ED50 (P. mirabilis 774): ~50 mg/kg
ED50 (P. vulgaris 1076): 80 mg/kg
ED50 (K. pneumoniae 329): 120 mg/kg
ED50 (E. coli 9-25.1.): > 300 mg/kg
ED50 (S. typhimurium 277): 110 mg/kg
ED50 (P. rettgeri 856): ≥ 30 mg/kg
ED50 [7]: 40 mg/kg
ED50 (S. pyogenes Aronson): 5.5 mg/kg
ED50 [8]: 76 mg/kg
ED50 (E. coli 2018): 13 mg/kg
ED50 (Pasteurella multocid 341): 110 mg/kg

COC1=C(C(=O)O)N2C(=O)[C@@H](NC(=O)[C@H](N)c3ccccc3)[C@H]2SC1 [compound II]
ED50 (E. coli 5): 13 mg/kg
ED50 [1]: 6 mg/kg
ED50 (Shigella flexneri 11836): 20 mg/kg
ED50 (E. coli 16): > 300 mg/kg
ED50 (Serratia marcescens 344): > 1000 mg/kg
ED50 (Escherichia coli 205): 22 mg/kg
ED50 (E. coli 2): > 1000 mg/kg
ED50 (E. coli 2018 R^+TEM): 38 mg/kg
ED50 (E. coli 1239/19): 12 mg/kg
ED50 (E. coli 9): 210 mg/kg
ED50 (S. aureus 2999 i^+ p^+): 210 mg/kg
ED50 [2]: 60 mg/kg
ED50 [3]: > 300 mg/kg
LD50 (in vivo; ip): 3800 ± 290 mg/kg
LD50 (in vivo; po): > 6000 mg/kg
ED50 (proteus morganii 2359): > 300 mg/kg
ED50 (E. coli 205 R^+TEM): 48 mg/kg
ED50 [4]: 75 mg/kg
ED50 [5]: > 300 mg/kg
ED50 [6]: 7.5 mg/kg
ED50 (P. mirabilis 774): 54 mg/kg
ED50 (P. vulgaris 1076): 25 mg/kg
ED50 (K. pneumoniae 329): 35 mg/kg
ED50 (E. coli 9-25.1.): > 300 mg/kg
ED50 (S. typhimurium 277): 65 mg/kg
ED50 (P. rettgeri 856): 14 mg/kg
ED50 [7]: 16 mg/kg
ED50 (S. pyogenes Aronson): 2.5 mg/kg
ED50 [8]: 100 mg/kg
ED50 (E. coli 2018): 15 mg/kg
ED50 (Pasteurella multocid 341): ~20 mg/kg

CC1=C(C(=O)O)N2C(=O)[C@@H](NC(=O)[C@H](N)c3ccccc3)[C@H]2SC1 [cephalexin]
ED50 (E. coli 5): 28 mg/kg
ED50 [1]: 6.6 mg/kg
ED50 (Shigella flexneri 11836): 7 mg/kg
ED50 (E. coli 16): > 300 mg/kg
ED50 (Serratia marcescens 344): > 300 mg/kg
ED50 (Escherichia coli 205): 40 mg/kg
ED50 (E. coli 2): > 1000 mg/kg
ED50 (E. coli 2018 R^+TEM): 25 mg/kg
ED50 (E. coli 1239/19): 20 mg/kg
ED50 (E. coli 9): 90 mg/kg
ED50 (S. aureus 2999 i^+ p^+): 85 mg/kg
ED50 [2]: 140 mg/kg
ED50 [3]: > 300 mg/kg
ED50 (proteus morganii 2359): > 1000 mg/kg
ED50 (E. coli 205 R^+TEM): 40 mg/kg
ED50 [4]: 105 mg/kg
ED50 [5]: > 1000 mg/kg
ED50 [6]: 6 mg/kg
ED50 (P. mirabilis 774): 80 mg/kg
ED50 (P. vulgaris 1076): 45 mg/kg
ED50 (K. pneumoniae 329): 47 mg/kg
ED50 (E. coli 9-25.1.): > 300 mg/kg
ED50 (S. typhimurium 277): 100 mg/kg
ED50 (P. rettgeri 856): 15 to 30 mg/kg
ED50 [7]: 30 mg/kg
ED50 (S. pyogenes Aronson): 6.3 mg/kg
ED50 [8]: 120 mg/kg
ED50 (E. coli 2018): 13 mg/kg
ED50 (Pasteurella multocid 341): 66 mg/kg

COC1=C(C(=O)O)N2C(=O)[C@@H](NC(=O)[C@H](N)C3=CCC=CC3)[C@H]2SC1 [compound I]
ED50 (E. coli 5): 7.8 mg/kg
ED50 [1]: 3.3 mg/kg
ED50 (Shigella flexneri 11836): 25 mg/kg
solubility in urin (solubility in urin): higher as compared to compound II
ED50 (E. coli 16): > 300 mg/kg
ED50 (Serratia marcescens 344): > 300 mg/kg
ED50 (Escherichia coli 205): 9.5 mg/kg
ED50 (E. coli 2): ~140 mg/kg
ED50 (E. coli 2018 R^+TEM): 14 mg/kg
ED50 (E. coli 1239/19): 4 mg/kg
ED50 (E. coli 9): ~30 mg/kg
bactericidal activity (bactericidal activity): surprisingly stronger bactericidal activity as compared to cephradin (III) and cephalexin (IV)
ED50 (S. aureus 2999 i^+ p^+): 25 mg/kg
ED50 [2]: 30 mg/kg
ED50 [3]: > 300 mg/kg
LD50 (in vivo; ip): 7090 mg/kg
LD50 (in vivo; po): > 6000 mg/kg
acute toxicity (mice): more favourable as the acute toxicity of compounds II and IV
ED50 (proteus morganii 2359): > 300 mg/kg
ED50 (E. coli 205 R^+TEM): 7.3 mg/kg
ED50 [4]: 40 mg/kg
ED50 [5]: > 300 mg/kg
ED50 [6]: 1 mg/kg
ED50 (P. mirabilis 774): 16 mg/kg
ED50 (P. vulgaris 1076): 20 mg/kg
ED50 (K. pneumoniae 329): 17 mg/kg
ED50 (E. coli 9-25.1.): ≥ 300 mg/kg
ED50 (S. typhimurium 277): 30 mg/kg
ED50 (P. rettgeri 856): 6.8 mg/kg
ED50 [7]: 8.5 mg/kg
ED50 (S. pyogenes Aronson): 1 mg/kg
ED50 [8]: 17.5 mg/kg
chemotherapeutic activity [9]: surprisingly stronger chemotherapeutic activity
ED50 (E. coli 2018): 3 mg/kg
ED50 (Pasteurella multocid 341): 17 mg/kg
